Data from patent US20080194585A1, “Fungicidal Pyrazine Derivatives” (priority 2005, published 2008).
Marks after values point to notes of the source that are not given here.

How the values were obtained:
[1] = test system: Rhizoctonia oryzae; experiment: Test G: turf brown patch, preventive spray on creeping bent grass seedlings; details: 40 ppm (*)
Description: (the causal agent of turf brown patch) and incubated in a saturated atmosphere at 27° C. for 24 h, and then moved to a growth chamber at 27° C. for 5 days, after which disease ratings were made.

[2] = test system: Puccinia recondita f. sp. tritici; experiment: Test K: wheat leaf rust, preventive spray on wheat seedlings; details: 40 ppm (*)
[3] = test system: Pythium aphanidermatum; experiment: Test A: bluegrass pythium blight, preventive spray on bluegrass seedlings
[4] = test system: fusarium graminearium; experiment: Test I: wheat head scab, preventive spray on wheat seedlings
Description: (the causal agent of wheat head scab) and incubated in a saturated atmosphere at 20° C. for 72 h, and then moved to a growth chamber at 22° C. for 5 days, after which disease ratings were made.

[5] = test system: Phytophthora infestans; experiment: whole plant or invertebrate; format: in vivo
[6] = test system: Plasmopara viticola; experiment: Test D: grape downy mildew, spray after inoculation of grape seedlings; format: in vivo
Description: Upon removal, disease ratings were made. […] A dash (-) indicates no test results.

[7] = test system: Erysiphe graminis f. sp. tritici; experiment: Test L: wheat powdery mildew, preventive spray on wheat seedlings; details: 40 ppm (*)
[8] = test system: Colletotrichum orbiculare; experiment: Test B: cucumber Colletotrichum anthracnose, preventive spray on cucumber seedlings; details: 40 ppm (*)
[9] = test system: Botrytis cinerea; experiment: Test E: tomato botrytis, preventive spray on tomato seedlings; details: 40 ppm (*)
[10] = test system: Septoria tritici; experiment: Test J: wheat leaf blotch, preventive spray on wheat seedlings; format: in vivo; details: 40 ppm (*)
Description: A dash (-) indicates no test results.

[11] = test system: Septoria nodorum; experiment: Test H: wheat glum blotch, preventive spray on wheat seedlings; details: 40 ppm (*)
Description: (the causal agent of wheat glum blotch) and incubated in a saturated atmosphere at 20° C. for 48 h, and then moved to a growth chamber at 22° C. for 5 days, after which disease ratings were made.

| Structure (SMILES) | Test G disease control rating [1] | Test K disease control rating [2] | Test A disease control rating ([3]; 40 ppm (*)) | Test I disease control rating ([4]; 40 ppm (*)) | Test F disease control rating ([5]; 40 ppm (*)) | Test D disease control rating ([6]; 40 ppm (*)) | Test L disease control rating [7] | Test B disease control rating [8] | Test E disease control rating [9] | Test J disease control rating [10] | Test H disease control rating [11] | Test A disease control rating ([3]; 200 ppm) [%] | Test I disease control rating ([4]; 200 ppm) [%] | Test F disease control rating ([5]; 200 ppm) [%] | Test D disease control rating ([6]; 200 ppm) [%] |
| --- | --- | --- | --- | --- | --- | --- | --- | --- | --- | --- | --- | --- | --- | --- | --- |
| CC(C)Cn1c(-c2cc(C(F)(F)F)cc(C(F)(F)F)c2)c(Cl)nc(-n2cccn2)c1=O [compound 150] | 0* % | 0* % | 0* % | 0* % | 0* % | 0* % | 0* % | 0* % | 0* % | 0* % | 0* % |  |  |  |  |
| CC(C)Cn1c(-c2ccc(Cl)o2)c(Cl)nc(-n2cccn2)c1=O [compound 151] | 0* % | 19* % |  |  |  |  | 0* % | 0* % | 98* % | 12* % | 0* % | 0 | 0 | 33 | 31 |
| CC(C)Cn1c(-c2ccc(Cl)s2)c(Cl)nc(-n2cccn2)c1=O [compound 152] | 0* % | 55* % |  |  |  |  | 0* % | 0* % | 100* % | 91* % | 0* % | 0 | 0 | 0 | 16 |
| CC(C)Cn1c(-c2ccoc2)c(Cl)nc(-n2cccn2)c1=O [compound 153] | 0* % | 0* % |  |  |  |  | 0* % | 0* % | 79* % | 20* % | 0* % | 0 | 0 | 0 | 31 |
| CC(C)Cn1c(-c2ccsc2)c(Cl)nc(-n2cccn2)c1=O [compound 154] | 0* % | 0* % |  |  |  |  | 0* % | 0* % | 99* % | 45* % | 0* % | 0 | 0 | 0 | 50 |
| CC(C)Cn1c(-c2ccc(Cl)o2)c(Cl)nc(-n2cncn2)c1=O [compound 156] | 0* % | 0* % |  |  |  |  | 0* % | 0* % | 0* % | 14* % | 0* % | 0 | 0 | 0 | 0 |
| CC(C)Cn1c(-c2ccc(Cl)s2)c(Cl)nc(-n2cncn2)c1=O [compound 157] | 0* % | 0* % |  |  |  |  | 0* % | 0* % | 0* % | 47* % | 0* % | 0 | 49 | 0 | 0 |
| CC(C)Cn1c(-c2ccoc2)c(Cl)nc(-n2cncn2)c1=O [compound 158] | 0* % | 0* % |  |  |  |  | 0* % | 0* % | 0* % | 15* % | 0* % | 0 | 0 | 0 | 0 |
| CC(C)Cn1c(-c2ccsc2)c(Cl)nc(-n2cncn2)c1=O [compound 159] | 0* % | 0* % |  |  |  |  | 0* % | 0* % | 0* % | 69* % | 0* % | 0 | 0 | 47 | 0 |
| N#Cc1nc(Cl)c(-c2c(F)cccc2F)n(-c2ccccc2)c1=O [compound 163] | 0* % | 0* % | 0* % | 0* % | 0* % | 0* % | 0* % | 0* % | 0* % | 3* % | 0* % |  |  |  |  |
| CCC(C)Cn1c(-c2ccc(F)cc2Cl)c(Cl)nc(-n2cncn2)c1=O (stereo not shown) [compound 165] | 16* % | 100* % | 0* % | 0* % | 0* % | 31* % | 100* % | 52* % | 100* % | 100* % | 100* % |  |  |  |  |
| CCC(C)Cn1c(-c2ccc(F)cc2Cl)c(Cl)nc(-n2cc(Cl)cn2)c1=O (stereo not shown) [compound 166] | 26* % | 86* % | 0* % | 0* % | 0* % | 0* % | 0* % | 17* % | 100* % | 100* % | 0* % |  |  |  |  |
| CCC(C)Cn1c(-c2ccc(F)cc2Cl)c(Cl)nc(-n2ccc(C(F)(F)F)n2)c1=O (stereo not shown) [compound 167] | 0* % | 80* % | 0* % | 0* % | 0* % | 0* % | 0* % | 0* % | 0* % | 93* % | 0* % |  |  |  |  |
| CCC(C)Cn1c(-c2ccc(F)cc2Cl)c(Cl)nc(-n2nc(C)cc2C)c1=O (stereo not shown) [compound 168] | 0* % | 0* % | 0* % | 0* % | 0* % | 0* % | 0* % | 0* % | 0* % | 36* % | 0* % |  |  |  |  |
